# Experimental data taken from PMC10435442, “Developing multitarget coumarin based anti-breast cancer agents: synthesis and molecular modeling study” (Scientific Reports, 2023).
# Values joined by “and” are separate entries in the source; they are usually repeats but may differ in a detail not shown here. Equal values may be shown once. Read-outs that look alike come from different tables or passages of the source.
# Key:
# in vitro = conditions: human, MCF-10A cells (nonmalignant breast)
# MDA-MB-231 [1] = experiment: Annexin V-FITC/PI dual staining apoptosis assay, MDA-MB-231; format: cell-based, human; conditions: MDA-MB-231
# MCF-10A = experiment: MTT cytotoxicity assay, nonmalignant MCF-10A; conditions: read-out: MCF-10A IC50; MTT, nonmalignant MCF-10A;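 note: MTT assay with absorbance read at 570 nm after 48 h exposure of cells to serial compound concentrations at 37 °C, testing selectivity against nonmalignant versus cancer cells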
# EGFR = EGFR (Homo sapiens, UniProt P00533); experiment: In vitro EGFR enzyme inhibition assay (ELISA)
# MCF-7 = experiment: MTT cytotoxicity assay, MCF-7; conditions: for IC50: Homo sapiens
# Bax = Bax level (ELISA) in treated cells; format: cell-based, human; conditions: MDA-MB-231 cells
# Caspase-9 = Caspase-9 level (ELISA) in treated cells; format: cell-based, human; conditions: MDA-MB-231 cells
# Bcl-2 = Bcl-2 level (ELISA) in treated cells; format: cell-based, human; conditions: MDA-MB-231 cells
# MDA-MB-231 [2] = experiment: MTT cytotoxicity assay, MDA-MB-231; conditions: for IC50: Homo sapiens; for % viability: MDA
# MDA-MB-231 [3] = experiment: DNA flow cytometric cell cycle analysis, MDA-MB-231; format: cell-based, human
# ARO = system: ARO; parameters: method as in PMID 21341743, PMID 28512028, PMID 15358790, PMID 24607878, PMID 30360952; conditions: reported coumarin derivatives, Fig. 1b; read-out: ARO inhibitior IC50; cited from earlier work
# [4] = MDA-MB-231, compared to control
# Chain of EGFR (P00533 25-1210): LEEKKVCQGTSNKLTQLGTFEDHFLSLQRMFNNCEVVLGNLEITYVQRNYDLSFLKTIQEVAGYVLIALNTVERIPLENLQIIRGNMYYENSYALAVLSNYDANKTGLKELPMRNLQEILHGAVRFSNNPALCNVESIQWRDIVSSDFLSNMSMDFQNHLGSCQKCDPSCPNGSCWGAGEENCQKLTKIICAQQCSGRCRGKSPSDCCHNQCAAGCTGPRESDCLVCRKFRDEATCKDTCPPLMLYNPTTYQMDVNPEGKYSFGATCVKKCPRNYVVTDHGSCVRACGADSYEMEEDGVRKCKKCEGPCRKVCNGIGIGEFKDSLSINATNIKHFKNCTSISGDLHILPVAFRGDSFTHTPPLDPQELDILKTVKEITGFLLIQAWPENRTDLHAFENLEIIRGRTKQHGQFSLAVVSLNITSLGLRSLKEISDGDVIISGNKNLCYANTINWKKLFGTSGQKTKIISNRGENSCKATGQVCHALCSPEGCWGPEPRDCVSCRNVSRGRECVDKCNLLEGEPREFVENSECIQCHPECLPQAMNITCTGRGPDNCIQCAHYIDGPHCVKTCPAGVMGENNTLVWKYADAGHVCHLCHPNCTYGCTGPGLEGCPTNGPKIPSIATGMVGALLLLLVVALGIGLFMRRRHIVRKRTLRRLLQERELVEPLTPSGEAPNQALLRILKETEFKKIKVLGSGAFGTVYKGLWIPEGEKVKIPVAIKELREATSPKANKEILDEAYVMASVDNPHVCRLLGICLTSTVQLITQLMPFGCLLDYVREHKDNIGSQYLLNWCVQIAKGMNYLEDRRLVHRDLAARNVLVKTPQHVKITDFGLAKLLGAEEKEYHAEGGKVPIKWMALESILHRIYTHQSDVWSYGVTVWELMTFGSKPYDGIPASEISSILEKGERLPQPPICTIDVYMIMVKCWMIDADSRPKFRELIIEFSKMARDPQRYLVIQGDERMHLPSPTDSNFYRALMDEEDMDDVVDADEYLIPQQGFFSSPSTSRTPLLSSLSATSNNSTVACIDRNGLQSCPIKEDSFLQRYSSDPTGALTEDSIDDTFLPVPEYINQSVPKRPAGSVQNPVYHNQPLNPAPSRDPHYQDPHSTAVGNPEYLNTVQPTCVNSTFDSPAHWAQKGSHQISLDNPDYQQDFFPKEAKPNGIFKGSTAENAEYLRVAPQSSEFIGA
compound,measurement,setting,value
"CC(=O)Oc1ccc2c(COC(=O)c3ccc(Cl)cc3)cc(=O)oc2c1 [Compound 14, (7-Acetoxy-2-oxo-2H-chromen-4-yl)methyl 4-chlorobenzoate]",IC50 at 48 h,in vitro,97.9 ± 4.77 µg/mL
same,"viability at 48 h, 0.4 ug",in vitro,85.6%
same,"viability at 48 h, 1.6 ug",in vitro,77.6%
same,"viability at 48 h, 6.25 ug",in vitro,67.2%
same,"viability at 48 h, 25 ug",in vitro,59.5%
same,"viability at 48 h, 100 ug",in vitro,49.6%
same,% Apoptosis Early,MDA-MB-231 [1],23.61^ilmn %
same,% Apoptosis Late,MDA-MB-231 [1],13.22^hik %
same,% Apoptosis Total,MDA-MB-231 [1],41.02% and 41.02^gh %
same,% Necrosis,MDA-MB-231 [1],4.19%
same,IC50,MCF-10A,263000 ± 4770 nM
same,IC50,"EGFR; EGFR IC50, lab report 01-09-2021, 04 compounds, reference Erlotinib",2440 nM
same,IC50,EGFR; EGFR inhibition IC50,2440 ± 51 nM
same,inhibition at 10 pg/mL,EGFR; read-out: EGFR %inh,18%
same,inhibition at 0.0001 µg/mL,EGFR; read-out: EGFR %inh,24%
same,inhibition at 0.001 µg/mL,EGFR; read-out: EGFR %inh,44%
same,inhibition at 0.01 µg/mL,EGFR; read-out: EGFR %inh,78%
same,Percentage above Reference IC50 (potency relative to erlotinib),EGFR; reference Erlotinib,5.942%
same,IC50,"MCF-7; MCF7, read-out: MCF-7 IC50",285000 ± 6410 nM
same,IC50,"MCF-7; MCF7, read-out: cytotoxicity_IC50 mcf7",106 ± 6.41 µg/mL
same,% viability,"MCF-7; MCF7, 0.4ug",88.083%
same,% viability,"MCF-7; MCF7, 1.6ug",77.238%
same,% viability,"MCF-7; MCF7, 6.3ug",66.961%
same,% viability,"MCF-7; MCF7, 25ug",60.34%
same,% viability,"MCF-7; MCF7, 100ug",50.7566%
same,Bax Conc,Bax,0.292±0.0106^ghi ng/ml
same,Bax FLD (fold versus control),Bax,4.9 folds
same,Caspase-9 Conc.,Caspase-9,18.97±0.62^ghi ng/ml
same,Caspase-9 FLD (fold versus control),Caspase-9,4.37 folds
same,Bcl-2 Conc,Bcl-2,2.984±0.12^gh ng/ml
same,Bcl-2 FLD (fold versus control),Bcl-2,0.329 folds
same,selectivity against MDA-MB-231 than MCF-7,MDA-MB-231 [2],150 times
same,IC50,"MDA-MB-231 [2]; MDA-MB-231, read-out: MDA-MBA-231 IC50",1900 ± 30 nM
same,IC50,"MDA-MB-231 [2]; MDA-MB-231, read-out: cytotoxicity_IC50 MDA",0.64 ± 0.03 µg/mL
same,% viability,MDA-MB-231 [2]; 0.4ug (log conc. -0.41),53.505%
same,% viability,MDA-MB-231 [2]; 1.6ug (log conc. 0.19),43.354%
same,% viability,MDA-MB-231 [2]; 6.25ug (log conc. 0.8),34.773%
same,% viability,MDA-MB-231 [2]; 25ug (log conc. 1.4),26.136%
same,% viability,MDA-MB-231 [2]; 100ug (log conc. 2),15.4795%
same,%G0-G1,"MDA-MB-231 [3]; MDA-MB-231, IC50 concentration",54.69^ikBD %
same,%G2/M,"MDA-MB-231 [3]; MDA-MB-231, IC50 concentration",7.09^dACDE %
same,%Pre-G1,"MDA-MB-231 [3]; MDA-MB-231, IC50 concentration",41.02^iklmC %
same,%S,"MDA-MB-231 [3]; MDA-MB-231, IC50 concentration",38.22^ABE %
same,cell cycle arrest at S phase,MDA-MB-231 [3]; [4],1.38 folds
same,increase of apoptotic cells in pre-G1 phase,MDA-MB-231 [3]; [4],19.9 folds
O=c1cc(Cn2ccnc2)c2ccc(Oc3ccc(F)c(F)c3)cc2o1 [II],IC50,ARO,47 nM
COc1ccc2c(Cc3ccccc3)c(-c3ccc(Cl)cc3)c(=O)oc2c1 [IV],IC50,ARO,80 nM
